ChEMBL document CHEMBL3085693, “Discovery of a potent inhibitor of replication protein a protein-protein interactions using a fragment-linking approach” (J Med Chem, 2013)
Values belong to the molecule of their own block, whether it stands above or below them.

How the values were obtained:
[1] = target: T1, Replication protein A 70 kDa DNA-binding subunit (Homo sapiens, UniProt P27694); experiment: Binding affinity to RPA70N (1 to 120) site2 (unknown origin) expressed in Escherichia coli BL21-DE3 cells by NMR spectroscopy
[2] = target: T1, Replication protein A 70 kDa DNA-binding subunit; experiment: Binding affinity to RPA70N (1 to 120) (unknown origin) expressed in Escherichia coli BL21-DE3 cells by NMR spectroscopy
[3] = target: T1, Replication protein A 70 kDa DNA-binding subunit; experiment: Binding affinity to RPA70N (1 to 120) site1 (unknown origin) expressed in Escherichia coli BL21-DE3 cells by NMR spectroscopy
[4] = target: T1, Replication protein A 70 kDa DNA-binding subunit; experiment: Binding affinity to RPA70N (1 to 120) (unknown origin) expressed in Escherichia coli BL21-DE3 cells by FPA assay
[5] = target: T1, Replication protein A 70 kDa DNA-binding subunit; experiment: Displacement of FITC-ss-DNA from RPA70AB domain (unknown origin) by FPA assay
[6] = target: T1, Replication protein A 70 kDa DNA-binding subunit; experiment: Displacement of FITC-ss-DNA from RPA70NAB domain (unknown origin) by FPA assay
[7] = target: T1, Replication protein A 70 kDa DNA-binding subunit; experiment: Displacement of FITC-ATRIP2 from RPA70NAB domain (unknown origin) by FPA assay
[8] = target: T1, Replication protein A 70 kDa DNA-binding subunit; experiment: Displacement of FITC-ATRIP2 from RPA70N (1 to 120) (unknown origin) by FPA assay
[9] = target: T1, Replication protein A 70 kDa DNA-binding subunit; experiment: Binding affinity to RPA70NAB (unknown origin) by FPA assay

T1 sequence (P27694 whole entry): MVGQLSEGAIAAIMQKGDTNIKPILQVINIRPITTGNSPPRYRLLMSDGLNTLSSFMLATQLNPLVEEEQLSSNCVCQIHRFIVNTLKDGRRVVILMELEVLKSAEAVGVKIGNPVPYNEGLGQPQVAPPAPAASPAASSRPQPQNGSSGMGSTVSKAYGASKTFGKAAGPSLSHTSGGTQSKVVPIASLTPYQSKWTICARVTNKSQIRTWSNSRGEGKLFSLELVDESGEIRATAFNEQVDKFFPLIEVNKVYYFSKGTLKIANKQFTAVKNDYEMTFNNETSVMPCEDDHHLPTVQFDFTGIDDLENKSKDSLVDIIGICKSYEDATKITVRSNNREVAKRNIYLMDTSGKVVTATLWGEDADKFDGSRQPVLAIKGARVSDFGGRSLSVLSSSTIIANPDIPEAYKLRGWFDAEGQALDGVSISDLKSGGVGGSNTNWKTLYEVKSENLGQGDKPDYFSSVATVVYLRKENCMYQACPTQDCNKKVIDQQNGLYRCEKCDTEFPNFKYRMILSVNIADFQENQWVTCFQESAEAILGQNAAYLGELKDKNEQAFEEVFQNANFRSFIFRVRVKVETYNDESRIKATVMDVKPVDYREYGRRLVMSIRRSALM

Kd [3]: 710 µM | Kd [1]: 1400 µM
Compound: O=C(O)c1ccc(-c2ccc(F)c(Cl)c2)o1

Kd [1]: 1120 µM
Compound: O=C(O)c1cc(-c2ccc(F)cc2)n[nH]1

Kd [2]: 26 µM | Kd [4]: 20 µM
Compound: Cc1cccc(-n2nc(C(=O)O)cc2-c2ccc(OCc3ccc(-c4ccc(C(=O)O)o4)cc3)cc2)c1

The remaining lines, values behind:

Compound: CCc1c(O)[nH]c2nc3ccccc3n2c1=O
Kd [1]: 1620 µM

Compound: O=C(O)c1cc(-c2ccc(CNC(=O)c3ccc(-c4ccc(C(=O)O)o4)cc3Cl)cc2)n(-c2ccc(Cl)c(Cl)c2)n1
Kd [2]: 2.9 µM

Compound: O=C(O)c1cc(-c2ccc(CNC(=S)c3ccc(-c4ccc(C(=O)O)o4)cc3Cl)cc2)n(-c2ccc(Cl)c(Cl)c2)n1
Kd [5]: 5.2 µM | Kd [6]: 2.3 µM | Kd [7]: 0.323 µM | Kd [8]: 0.19 µM | Kd [9]: 0.29 µM | Kd [4]: 0.19 µM

Compound: Cc1cccc2c(-c3ccccc3)c(C(=O)O)[nH]c12
Kd [3]: 640 µM

Compound: Cc1cccc(-n2nc(C(=O)O)cc2-c2ccccc2)c1
Kd [3]: 580 µM | Kd [1]: > 2000 µM
